Data from patent US20120277161A1, “INHIBITION OF MULTIPLE CELL ACTIVATION PATHWAYS” (INTER-K PTY LIMITED, priority 2009, published 2012).
Entries after “also recorded” stand apart in the source; their conditions may differ.

Tests used:
[1] = tested on: ERK1/2 activation in HT29 cells; test: Phospho-ERK1/2 ELISA upon serum (FCS) stimulation, HT29 cells; assay type: cell-based, human
Procedure: HT29 cells were harvested using 0.5% trypsin EDTA (Invitrogen) and 5000 cells in 200 μL media were plated into each well of a clear NUNC tissue culture treated 96 well plate (NUNC). Cells were seeded in DMEM media (Invitrogen) supplemented with 10% (v/v) heat inactivated foetal calf serum (FCS, Invitrogen), 1% (v/v) L-glutamine (Invitrogen) and 2% (v/v) 1M Hepes buffer solution (Invitrogen). Cells were then incubated overnight at 37° C.
The following day, the growth medium was replaced with 100 μL of DMEM supplemented with 1% (v/v) L-glutamine and 2% (v/v) 1M HEPES buffer solution (Invitrogen) (serum free medium, SFM) and plates incubated for a further 24 hours at 37° C.
The dendrimers were re-constituted in SFM and the desired concentration was added to the plate in 100 μL SFM to make the total volume of each well 200 μL. The control wells (minus peptide) had only SFM added. The assay plate was then incubated at 37° C. for 4 hours. In studies in which cells were subjected to stimulation by serum, 22 μL FCS (10% v/v final concentration) was added to wells for the final 10 minutes at 37° C. SFM only (22 μL) was added to control wells.
Phospho-ERK levels were evaluated by ELISA utilising an Active Motif FACE ERK1/2 ELISA kit (Australian Biosearch, WA, Australia) as per the manufacturers instructions. Briefly, media was replaced and cells fixed with 4% formaldehyde in PBS, and after a one hour incubation with antibody blocking buffer (supplied), the primary phospho-ERK antibody was added and the plate incubated overnight at 4° C. Antibody dilution buffer only was added to control test wells containing no primary antibody. The following day, HRP-conjugated secondary antibody was added to all wells for one hour before plates were developed and the absorbance measured at 450 nm using a Labsystems Multiskan EX microplate reader (Labsystems, Thermo Labsystems, UK).

[2] = tested on: ERK1/2 activity in skin fibroblast cells; test: Phospho-ERK1/2 upon FCS stimulation, skin fibroblast cells; assay type: cell-based; details: compared to HT29 cells, data not shown
[3] = tested on: HT29 human colon cancer cells; test: Cell proliferation (MTT) assay, HT29 cells; assay type: cell-based; details: MTT, 24 hour incubation period
Procedure: 6.1 Cell Proliferation (MTT) Assay Single cell suspensions of viable trypsinised cells were seeded into 96-well tissue culture plates at a density of 2×10^3 cells per well in a volume of 100 μl of a suitable culture media supplemented with heat inactivated foetal calf serum (FCS) (e.g., Dulbecco's Modified Eagles Medium (DMEM), with 10% v/v FCS, 1% L-glutamine, 2% (v/v) Hepes, and antibiotics). A set of triplicate wells was prepared for each concentration of the peptide dendrimer being tested. Additional sample wells containing untreated cells or media alone were set up in each treatment plate and processed in parallel as reference controls. A zero-time plate of untreated cells and media-alone wells was simultaneously prepared and an MTT assay carried out on this plate at the time of addition of the kinase inhibitor (i.e., polypeptide or dendrimer) to treatment plates. All plates were cultured for 24 hours before addition of the test dendrimer.
To prepare the MTT solution 100 mg of MTT (3-(4,5-dimethylthiazolyl-2)-2,5-diphenyltetrazolium bromide) (Cat #. M-128, Sigma, St Louis Mo.), is mixed with 20 ml of PBS at pH 7.4. The resulting solution is filter sterilized (0.2 μM syringe filter) and stored at 4° C. protected from light until use. MTT substrate is cleaved in growing cells to yield a water insoluble salt. After solubilisation of the salt crystals, a coloured product is produced the measurement of which allows quantitation of the proliferative activity of the cultured cells.
Appropriate concentrations of the kinase inhibitor were prepared by dilution of freshly prepared sterile 1 mM stock solutions into cell culture media to give a final well volume of 200 μl containing 10% v/v FCS. The zero-plate was processed by addition of MTT at this time. Cell culture was continued for a further 24 or 48 hours before addition of 20 μl of MTT in PBS (5 mg/ml, 0.2 um filter sterilised). The MTT cell proliferation assay measures cell proliferation rate and, in instances where cell viability is compromised, the assay indicates a comparative reduction in cell viability. After a 3 hour incubation in the presence of MTT (5% CO2 in air at 37° C.), plates were centrifuged at 450 g for 5 minutes, supernatant was removed by gentle suction and precipitated tetrazolium salt resuspended into 150 μl DMSO:glycine (0.1M glycine, 0.1M NaCl pH 10.5) (6:1 v/v) solution. Plates were gently vortexed to complete solubilisation of crystalline material and absorbance was read at 550 nm using a microplate reader. Sample data were processed to determine the comparative growth of treated samples relative to untreated controls.
HT29 cells were cultured for 48 hours in the presence of selected dendrimers and proliferation of the cells was assessed by MTT assay essentially as described in Example 6.1. The results were calculated as percentage proliferation of control cells (not treated with dendrimer).

CC(C)C[C@H](NC(=O)[C@@H]1CCCN1C(=O)[C@H](CC(N)=O)NC(=O)[C@H](CCCCN)NC(=O)[C@H](C)NC(=O)[C@H](CCCCN)NC(=O)[C@H](CO)NC(=O)[C@@H](N)CCCNC(=N)N)C(=O)N[C@@H](Cc1ccc(O)cc1)C(=O)N[C@@H](CCCNC(=N)N)C(=O)NCCCC[C@H](NC(=O)[C@H](CCCNC(=N)N)NC(=O)[C@H](Cc1ccc(O)cc1)NC(=O)[C@H](CC(C)C)NC(=O)[C@@H]1CCCN1C(=O)[C@H](CC(N)=O)NC(=O)[C@H](CCCCN)NC(=O)[C@H](C)NC(=O)[C@H](CCCCN)NC(=O)[C@H](CO)NC(=O)[C@@H](N)CCCNC(=N)N)C(=O)NCCCC[C@H](NC(=O)[C@H](CCCCNC(=O)[C@H](CCCNC(=N)N)NC(=O)[C@H](Cc1ccc(O)cc1)NC(=O)[C@H](CC(C)C)NC(=O)[C@@H]1CCCN1C(=O)[C@H](CC(N)=O)NC(=O)[C@H](CCCCN)NC(=O)[C@H](C)NC(=O)[C@H](CCCCN)NC(=O)[C@H](CO)NC(=O)[C@@H](N)CCCNC(=N)N)NC(=O)[C@H](CCCNC(=N)N)NC(=O)[C@H](Cc1ccc(O)cc1)NC(=O)[C@H](CC(C)C)NC(=O)[C@@H]1CCCN1C(=O)[C@H](CC(N)=O)NC(=O)[C@H](CCCCN)NC(=O)[C@H](C)NC(=O)[C@H](CCCCN)NC(=O)[C@H](CO)NC(=O)[C@@H](N)CCCNC(=N)N)C(=O)NCCCC[C@H](NC(=O)[C@H](CCCCNC(=O)[C@H](CCCCNC(=O)[C@H](CCCNC(=N)N)NC(=O)[C@H](Cc1ccc(O)cc1)NC(=O)[C@H](CC(C)C)NC(=O)[C@@H]1CCCN1C(=O)[C@H](CC(N)=O)NC(=O)[C@H](CCCCN)NC(=O)[C@H](C)NC(=O)[C@H](CCCCN)NC(=O)[C@H](CO)NC(=O)[C@@H](N)CCCNC(=N)N)NC(=O)[C@H](CCCNC(=N)N)NC(=O)[C@H](Cc1ccc(O)cc1)NC(=O)[C@H](CC(C)C)NC(=O)[C@@H]1CCCN1C(=O)[C@H](CC(N)=O)NC(=O)[C@H](CCCCN)NC(=O)[C@H](C)NC(=O)[C@H](CCCCN)NC(=O)[C@H](CO)NC(=O)[C@@H](N)CCCNC(=N)N)NC(=O)[C@H](CCCCNC(=O)[C@H](CCCNC(=N)N)NC(=O)[C@H](Cc1ccc(O)cc1)NC(=O)[C@H](CC(C)C)NC(=O)[C@@H]1CCCN1C(=O)[C@H](CC(N)=O)NC(=O)[C@H](CCCCN)NC(=O)[C@H](C)NC(=O)[C@H](CCCCN)NC(=O)[C@H](CO)NC(=O)[C@@H](N)CCCNC(=N)N)NC(=O)[C@H](CCCNC(=N)N)NC(=O)[C@H](Cc1ccc(O)cc1)NC(=O)[C@H](CC(C)C)NC(=O)[C@@H]1CCCN1C(=O)[C@H](CC(N)=O)NC(=O)[C@H](CCCCN)NC(=O)[C@H](C)NC(=O)[C@H](CCCCN)NC(=O)[C@H](CO)NC(=O)[C@@H](N)CCCNC(=N)N)C(=O)NCCC(N)=O [Dend 8-10(4)]
greater inhibition of activated phospho-ERK 1/2 than the closest test agent (TAT-G RSKAKNPLYR) ([1]; 5 μM, 1 hour, FCS stimulated HT29 cells): at least 30% | inhibition of activated phospho-ERK1/2 ([1]; 5 μM, 4 hours, HT29 cells, data not shown): approx. 95% | ERK1/2 activation (phospho-ERK1/2 levels) upon serum (FCS) stimulation, HT29 cells ([1]; exposure to dendrimer for 4 hours prior to FCS): abolished ERK1/2 activation in a dose-dependent manner; also recorded: significantly reduced | inhibition of ERK1/2 activity upon FCS stimulation, skin fibroblast cells [2]: much less inhibition | inhibition of proliferation of HT29 colon cancer cells [3]: substantially more effective at inhibiting cell growth/proliferation
